Experimental data: ChEMBL document CHEMBL1151324, “Cytotoxic geranyl stilbenes from Macaranga schweinfurthii” (J Nat Prod, 1998)
Values after ≈ are worked out from the molar mass of the structure shown.

Legend:
[1] = system: A549; assay: Cytotoxicity against human A549 cells after 1 hr; assay type: functional, cell-based; conditions: A549, 1 h
[2] = system: A549; assay: Cytotoxicity against human A549 cells after 1 hr compound washout; assay type: functional, cell-based; conditions: A549, 1 h
[3] = system: A549; assay: Cytotoxicity against human A549 cells after 48 hrs; assay type: functional, cell-based; conditions: A549, 48 h
[4] = system: SF-295; assay: Cytotoxicity against human SF295 cells after 1 hr; assay type: functional, cell-based; conditions: SF-295, 1 h
[5] = system: SF-295; assay: Cytotoxicity against human SF295 cells after 48 hrs; assay type: functional, cell-based; conditions: SF-295, 48 h
[6] = system: HL-60; assay: Cytotoxicity against human HL60 cells; assay type: functional
[7] = system: K562; assay: Cytotoxicity against human K562 cells; assay type: functional
[8] = system: SR; assay: Cytotoxicity against human SR cells; assay type: functional
[9] = system: A549; assay: Cytotoxicity against human A549 cells; assay type: functional
[10] = system: EKVX; assay: Cytotoxicity against human EKVX cells; assay type: functional
[11] = system: HOP-62; assay: Cytotoxicity against human HOP62 cells; assay type: functional
[12] = system: HOP-92; assay: Cytotoxicity against human HOP92 cells; assay type: functional
[13] = system: NCI-H23; assay: Cytotoxicity against human NCI-H23 cells; assay type: functional
[14] = system: NCI-H322M; assay: Cytotoxicity against human NCI-H322M cells; assay type: functional
[15] = system: NCI-H460; assay: Cytotoxicity against human NCI-H460 cells; assay type: functional
[16] = system: NCI-H522; assay: Cytotoxicity against human NCI-H522 cells; assay type: functional
[17] = system: COLO 205; assay: Cytotoxicity against human COLO205 cells; assay type: functional
[18] = system: KM12; assay: Cytotoxicity against human KM12 cells; assay type: functional
[19] = system: SF-268; assay: Cytotoxicity against human SF268 cells; assay type: functional
[20] = system: SNB-75; assay: Cytotoxicity against human SNB75 cells; assay type: functional
[21] = system: U-251; assay: Cytotoxicity against human U251 cells; assay type: functional
[22] = system: LOX IMVI; assay: Cytotoxicity against human LOXIMVI cells; assay type: functional
[23] = system: Malme-3M; assay: Cytotoxicity against human MALME-3M cells; assay type: functional
[24] = system: M14; assay: Cytotoxicity against human M14 cells; assay type: functional
[25] = system: SK-MEL-2; assay: Cytotoxicity against human SK-MEL-2 cells; assay type: functional
[26] = system: SK-MEL-28; assay: Cytotoxicity against human SK-MEL-28 cells; assay type: functional
[27] = system: SK-MEL-5; assay: Cytotoxicity against human SK-MEL-5 cells; assay type: functional
[28] = system: UACC-257; assay: Cytotoxicity against human UACC257 cells; assay type: functional
[29] = system: IGROV-1; assay: Cytotoxicity against human IGROV1 cells; assay type: functional
[30] = system: OVCAR-3; assay: Cytotoxicity against human OVCAR-3 cells; assay type: functional
[31] = system: OVCAR-4; assay: Cytotoxicity against human OVCAR4 cells; assay type: functional
[32] = system: OVCAR-5; assay: Cytotoxicity against human OVCAR5 cells; assay type: functional
[33] = system: OVCAR-8; assay: Cytotoxicity against human OVCAR8 cells; assay type: functional
[34] = system: SK-OV-3; assay: Cytotoxicity against human SKOV3 cells; assay type: functional
[35] = Cytotoxicity against human 786-O cells; assay type: functional
[36] = system: A498; assay: Cytotoxicity against human A498 cells; assay type: functional
[37] = system: RXF 393; assay: Cytotoxicity against human RXF393 cells; assay type: functional
[38] = system: SN12C; assay: Cytotoxicity against human SN12C cells; assay type: functional
[39] = system: TK-10; assay: Cytotoxicity against human TK10 cells; assay type: functional
[40] = system: UO-31; assay: Cytotoxicity against human UO31 cells; assay type: functional
[41] = system: PC-3; assay: Cytotoxicity against human PC3 cells; assay type: functional
[42] = system: MCF7; assay: Cytotoxicity against human MCF7 cells; assay type: functional
[43] = system: MDA-MB-231; assay: Cytotoxicity against human MDA-MB-231 cells; assay type: functional
[44] = Cytotoxicity against human Hs 578T cells; assay type: functional
[45] = system: MDA-MB-435; assay: Cytotoxicity against human MDA-MB-435 cells; assay type: functional
[46] = system: BT-549; assay: Cytotoxicity against human BT549 cells; assay type: functional
[47] = system: T47D; assay: Cytotoxicity against human T47D cells; assay type: functional
[48] = read-out: pLC50 (the source's name) (converted)

Compound: COc1cc(/C=C/c2cc(O)c(C/C=C(\C)CCC=C(C)C)c(O)c2)cc2c1O[C@]1(C)C[C@@H](O)[C@@H](O)C(C)(C)[C@H]1C2 [SCHWEINFURTHIN B]
- IC50 [1]: > 100 µg/mL
- IC50 [2]: 80 µg/mL (≈ 142 µM)
- IC50 [3]: 7.1 µg/mL (≈ 12.6 µM)
- IC50 [4]: > 100 µg/mL
- IC50 [5]: 0.009 µg/mL (≈ 0.016 µM)
- GI50 [6]: 0.0372 µM
- LC50 [6]: > 100 µM
- TGI ([6]; read-out: pTGI (converted)): 1.29 µM
- GI50 [7]: 0.347 µM
- LC50 [7]: 36.3 µM
- TGI ([7]; read-out: pTGI (converted)): 6.17 µM
- GI50 [8]: 0.257 µM
- LC50 [8]: 58.9 µM
- TGI ([8]; read-out: pTGI (converted)): 12 µM
- GI50 [9]: 0.339 µM
- LC50 (concentration killing 50% of cells) [9]: 38.9 µM
- TGI ([9]; read-out: pTGI (converted)): 14.1 µM
- GI50 [10]: 0.933 µM
- LC50 [10]: 38 µM
- TGI ([10]; read-out: pTGI (converted)): 14.1 µM
- GI50 [11]: 0.851 µM
- LC50 [11]: 40.7 µM
- TGI ([11]; read-out: pTGI (converted)): 14.1 µM
- GI50 [12]: 0.933 µM
- LC50 [12]: 41.7 µM
- TGI ([12]; read-out: pTGI (converted)): 12.9 µM
- GI50 [13]: 3.24 µM
- LC50 [13]: 51.3 µM
- TGI ([13]; read-out: pTGI (converted)): 19.1 µM
- GI50 [14]: 3.39 µM
- LC50 [14]: 42.7 µM
- TGI ([14]; read-out: pTGI (converted)): 17 µM
- GI50 [15]: 0.269 µM
- LC50 [15]: 57.5 µM
- TGI ([15]; read-out: pTGI (converted)): 12.9 µM
- GI50 [16]: 3.02 µM
- LC50 [16]: 39.8 µM
- TGI ([16]; read-out: pTGI (converted)): 17 µM
- GI50 [17]: 0.617 µM
- LC50 [17]: 6.76 µM
- TGI ([17]; read-out: pTGI (converted)): 2.4 µM
- GI50 [18]: 1.29 µM
- LC50 [18]: 18.2 µM
- TGI ([18]; read-out: pTGI (converted)): 9.33 µM
- GI50 [19]: 4.37 µM
- LC50 [19]: 75.9 µM
- TGI ([19]; read-out: pTGI (converted)): 24 µM
- GI50 [20]: 0.0251 µM
- LC50 [20]: 60.3 µM
- TGI ([20]; read-out: pTGI (converted)): 1.82 µM
- GI50 [21]: 0.2 µM
- LC50 [21]: 49 µM
- TGI ([21]; read-out: pTGI (converted)): 24 µM
- GI50 [22]: 0.38 µM
- LC50 [22]: 30.9 µM
- TGI ([22]; read-out: pTGI (converted)): 17 µM
- GI50 [23]: 8.71 µM
- LC50 [23]: 69.2 µM
- TGI ([23]; read-out: pTGI (converted)): 26.9 µM
- GI50 [24]: 0.141 µM
- LC50 [24]: 4.17 µM
- TGI ([24]; read-out: pTGI (converted)): 1.2 µM
- GI50 [25]: 1.82 µM
- LC50 [25]: 46.8 µM
- TGI ([25]; read-out: pTGI (converted)): 17 µM
- GI50 [26]: 1.1 µM
- LC50 [26]: 52.5 µM
- TGI ([26]; read-out: pTGI (converted)): 12.9 µM
- GI50 [27]: 0.209 µM
- LC50 [27]: 28.8 µM
- TGI ([27]; read-out: pTGI (converted)): 8.91 µM
- GI50 [28]: 5.75 µM
- LC50 [28]: 46.8 µM
- TGI ([28]; read-out: pTGI (converted)): 20.9 µM
- GI50 [29]: 2.4 µM
- LC50 [29]: 42.7 µM
- TGI ([29]; read-out: pTGI (converted)): 18.2 µM
- GI50 [30]: 3.89 µM
- LC50 [30]: 42.7 µM
- TGI ([30]; read-out: pTGI (converted)): 12.9 µM
- GI50 [31]: 12 µM
- LC50 [31]: 77.6 µM
- TGI ([31]; read-out: pTGI (converted)): 50.1 µM
- GI50 [32]: 7.08 µM
- LC50 (concentration killing 50% of cells) [32]: 44.7 µM
- TGI ([32]; read-out: pTGI (converted)): 19.1 µM
- GI50 [33]: 11 µM
- LC50 [33]: 64.6 µM
- TGI ([33]; read-out: pTGI (converted)): 26.9 µM
- GI50 [34]: 2.57 µM
- LC50 [34]: 40.7 µM
- TGI ([34]; read-out: pTGI (converted)): 15.8 µM
- GI50 ([35]; 786-0): 0.0219 µM
- LC50 ([35]; 786-0): 14.1 µM
- TGI ([35]; 786-0, read-out: pTGI (converted)): 1.91 µM
- GI50 [36]: 1.7 µM
- LC50 [36]: 44.7 µM
- TGI ([36]; read-out: pTGI (converted)): 17 µM
- GI50 [37]: 0.01 µM
- LC50 [37]: 7.08 µM
- TGI ([37]; read-out: pTGI (converted)): 0.269 µM
- GI50 [38]: 12 µM
- LC50 [38]: 67.6 µM
- TGI ([38]; read-out: pTGI (converted)): 28.8 µM
- GI50 [39]: 6.17 µM
- LC50 [39]: 52.5 µM
- TGI ([39]; read-out: pTGI (converted)): 21.9 µM
- GI50 [40]: 0.0759 µM
- LC50 [40]: 5.25 µM
- TGI ([40]; read-out: pTGI (converted)): 0.912 µM
- GI50 [41]: 0.251 µM
- CC50 [41, 48]: 42.7 µM
- TGI ([41]; read-out: pTGI (converted)): 12.9 µM
- GI50 [42]: 0.2 µM
- CC50 [42, 48]: 38.9 µM
- TGI ([42]; read-out: pTGI (converted)): 6.03 µM
- GI50 [43]: 6.46 µM
- CC50 [43, 48]: 81.3 µM
- TGI ([43]; read-out: pTGI (converted)): 38 µM
- GI50 [44]: 0.0199 µM
- CC50 [44, 48]: > 100 µM
- TGI ([44]; read-out: pTGI (converted)): 1.1 µM
- GI50 [45]: 7.59 µM
- CC50 [45, 48]: 72.4 µM
- TGI ([45]; read-out: pTGI (converted)): 33.1 µM
- GI50 [46]: 11 µM
- CC50 [46, 48]: 83.2 µM
- TGI ([46]; read-out: pTGI (converted)): 39.8 µM
- GI50 [47]: 11 µM
- CC50 [47, 48]: > 100 µM
- TGI ([47]; read-out: pTGI (converted)): 69.2 µM
